One assay concerns the target DGKζ (Homo sapiens (Human), UniProt Q13574). Kind of assay: Biochemical DGK IC50 assay, DGKζ ADP-Glo assay. The following applies: 0.5 nM enzyme, 140 μM ATP, 80 μM DAG; read-out: DGKζ ADP-Glo assay IC50. The procedure, abridged:
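Full-length human DGKζ, His-TEV tagged and purified from baculovirus-infected Sf9 cells, assayed by ADP-Glo with DAG/PS lipid micelle substrate prepared in 25 mM HEPES pH 7.0 with octyl glucoside. Final compound concentrations spanned 1.55–10000 nM or 23.3–150000 nM.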

For a further assay, the target named is DGKα (Homo sapiens (Human), UniProt P23743). Kind of assay: Biochemical DGK IC50 assay, DGKα ADP-Glo assay. The following applies: 7.5 nM enzyme, 140 μM ATP, 80 μM DAG. An outline of the steps:
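ADP-Glo read-out with full-length DGKα on DAG/PS lipid micelle substrate in 25 mM HEPES pH 7.0, 0.5 mM EDTA, 160 mM octyl β-D-glucopyranoside. Compound final concentrations spanned 1.55˜10000 nM or 23.3˜150000 nM.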
(ADP-Glo turns the ADP formed in a reaction into a luminescent signal.)

The structures appear in SMILES notation.

Sequence of DGKζ (Q13574 other isoform, or with tags, fused parts or gaps): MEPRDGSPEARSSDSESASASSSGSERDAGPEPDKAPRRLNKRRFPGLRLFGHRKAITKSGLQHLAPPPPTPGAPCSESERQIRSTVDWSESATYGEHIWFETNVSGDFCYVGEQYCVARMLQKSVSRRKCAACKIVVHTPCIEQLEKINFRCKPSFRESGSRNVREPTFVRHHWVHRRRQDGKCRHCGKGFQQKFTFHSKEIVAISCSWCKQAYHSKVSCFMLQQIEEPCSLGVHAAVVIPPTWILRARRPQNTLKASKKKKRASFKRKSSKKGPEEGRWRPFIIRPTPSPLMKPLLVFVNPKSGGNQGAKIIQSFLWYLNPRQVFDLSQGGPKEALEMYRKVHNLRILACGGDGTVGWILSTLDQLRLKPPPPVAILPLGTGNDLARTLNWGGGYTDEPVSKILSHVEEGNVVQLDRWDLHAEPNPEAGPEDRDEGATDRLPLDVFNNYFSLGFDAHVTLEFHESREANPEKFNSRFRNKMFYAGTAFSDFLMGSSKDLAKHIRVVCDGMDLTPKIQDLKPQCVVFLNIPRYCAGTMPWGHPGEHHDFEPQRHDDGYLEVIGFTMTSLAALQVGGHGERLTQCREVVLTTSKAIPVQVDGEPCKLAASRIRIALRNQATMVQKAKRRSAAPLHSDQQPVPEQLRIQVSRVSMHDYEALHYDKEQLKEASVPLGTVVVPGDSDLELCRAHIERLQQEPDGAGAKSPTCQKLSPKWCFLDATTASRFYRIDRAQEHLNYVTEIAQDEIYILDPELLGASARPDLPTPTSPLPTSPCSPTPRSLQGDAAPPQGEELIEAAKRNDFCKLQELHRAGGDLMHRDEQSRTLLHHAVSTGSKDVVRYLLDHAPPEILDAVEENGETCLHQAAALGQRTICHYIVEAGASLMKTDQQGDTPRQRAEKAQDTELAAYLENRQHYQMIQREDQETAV
Sequence of DGKα (P23743 whole entry): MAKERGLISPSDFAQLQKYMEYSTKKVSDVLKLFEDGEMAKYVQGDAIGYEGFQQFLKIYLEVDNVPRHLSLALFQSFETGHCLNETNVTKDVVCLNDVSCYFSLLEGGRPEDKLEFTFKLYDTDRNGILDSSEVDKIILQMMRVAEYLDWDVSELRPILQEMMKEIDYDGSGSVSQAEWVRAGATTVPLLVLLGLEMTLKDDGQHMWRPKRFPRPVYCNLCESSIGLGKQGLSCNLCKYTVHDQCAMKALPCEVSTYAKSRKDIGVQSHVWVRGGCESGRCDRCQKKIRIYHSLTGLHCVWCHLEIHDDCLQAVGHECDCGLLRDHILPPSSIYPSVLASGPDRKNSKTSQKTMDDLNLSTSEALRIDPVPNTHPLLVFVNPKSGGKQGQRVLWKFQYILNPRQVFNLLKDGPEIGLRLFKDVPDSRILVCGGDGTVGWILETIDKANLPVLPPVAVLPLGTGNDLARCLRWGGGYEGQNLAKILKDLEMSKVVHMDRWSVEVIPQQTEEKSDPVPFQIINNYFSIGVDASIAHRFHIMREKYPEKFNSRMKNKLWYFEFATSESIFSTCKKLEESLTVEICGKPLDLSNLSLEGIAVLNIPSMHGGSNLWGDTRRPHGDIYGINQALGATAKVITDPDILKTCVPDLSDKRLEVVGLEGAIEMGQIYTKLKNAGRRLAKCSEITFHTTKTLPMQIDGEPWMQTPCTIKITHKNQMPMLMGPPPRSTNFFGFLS

Take `C[C@@H]1CN(c2cc(=O)n(C)c3cn(CC#N)nc23)[C@@H](C)CN1[C@H](C)c1ccc2nccnc2c1` [Compound A2b, 2-(7-((2S,5R)-2,5-dimethyl-4-((R)-1-(quinoxalin-6-yl)ethyl)piperazin-1-yl)-4-methyl-5-oxo-4,5-dihydro-2H-pyrazolo[4,3-b]pyridin-2-yl)acetonitrile]: the IC50 on DGKζ amounted to 13000 nM; at DGKα, 19000 nM.
Turning to `CC[C@H]1CN(C(C)c2ncc(F)cc2C(F)(F)F)[C@H](CC)CN1c1cc(=O)n(C)c2cn(CC#N)nc12` (stereo partly drawn) [Compound A136, 2-(7-((2S,5R)-2,5-diethyl-4-(1-(5-fluoro-3-(trifluoromethyl)pyridin-2-yl)ethyl)piperazin-1-yl)-4-methyl-5-oxo-4,5-dihydro-2H-pyrazolo[4,3-b]pyridin-2-yl)acetonitrile], the IC50 at DGKζ stood at 317 nM; against DGKα, 61900 nM.
On the same counts, the results for `CCc1cc(F)ccc1C(C)N1C[C@H](CC)N(c2cc(=O)n(C)c3cn(CC#N)nc23)C[C@H]1CC` (stereo partly drawn) [Compound A205, 2-(7-((2S,5R)-2,5-diethyl-4-(1-(2-ethyl-4-fluorophenyl)ethyl)piperazin-1-yl)-4-methyl-5-oxo-4,5-dihydro-2H-pyrazolo[4,3-b]pyridin-2-yl)acetonitrile] are 151 nM and 63700 nM.
For `CC(c1ccc2ncc(C(C)(F)F)nc2c1)N1C[C@H](C)N(c2cc(=O)n(C)c3cn(CC#N)nc23)C[C@H]1C` (stereo partly drawn) [Compound A312, 2-(7-((2S,5R)-4-(1-(3-(1,1-difluoroethyl)quinoxalin-6-yl)ethyl)-2,5-dimethylpiperazin-1-yl)-4-methyl-5-oxo-4,5-dihydro-2H-pyrazolo[4,3-b]pyridin-2-yl)acetonitrile], the IC50 at DGKζ was 238 nM; against DGKα, 66000 nM.
Turning to `CC[C@H]1CN(C(C)c2ccc3c(n2)OCC3)[C@H](CC)CN1c1cc(=O)n(C)c2cn(CC#N)nc12` (stereo partly drawn) [Compound A337, 2-(7-((2S,5R)-4-(1-(2,3-dihydrofuro[2,3-b]pyridin-6-yl)ethyl)-2,5-diethylpiperazin-1-yl)-4-methyl-5-oxo-4,5-dihydro-2H-pyrazolo[4,3-b]pyridin-2-yl)acetonitrile], the IC50 came out at 283 nM at DGKζ and 203 nM against DGKα.
On to `Cc1nc2cc(C(C)N3C[C@H](C)N(c4cc(=O)n(C)c5cn(CC#N)nc45)C[C@H]3C)ccc2s1` (stereo partly drawn) [Compound A320], for which the IC50 at DGKζ amounted to 159 nM; against DGKα it was 11600 nM.
Regarding `CC(c1ccc2ncc(C(F)(F)F)nc2c1)N1C[C@H](C)N(c2cc(=O)n(C)c3cn(CC#N)nc23)C[C@H]1C` (stereo partly drawn) [Compound A314, 2-(7-((2S,5R)-2,5-dimethyl-4-(1-(3-(trifluoromethyl)quinoxalin-6-yl)ethyl)piperazin-1-yl)-4-methyl-5-oxo-4,5-dihydro-2H-pyrazolo[4,3-b]pyridin-2-yl)acetonitrile], the IC50 on DGKζ is 689 nM; against DGKα, 84300 nM.
As for `CC[C@H]1CN(C(C)c2ncccn2)[C@H](CC)CN1c1cc(=O)n(C)c2cn(CC#N)nc12` (stereo partly drawn) [Compound A130], the IC50 at DGKζ worked out at 9080 nM; on DGKα, 15 nM.
As for `CC[C@H]1CN(C(C)c2ccc(F)cn2)[C@H](CC)CN1c1cc(=O)n(C)c2cn(CC#N)nc12` (single isomer, unassigned) [Compound A74b], the IC50 is 5450 nM at DGKζ and 187 nM against DGKα.
Consider `CC[C@H]1CN(C(C)c2ccc3cc(C)ncc3c2)[C@H](CC)CN1c1cc(=O)n(C)c2cn(CC#N)nc12` (stereo partly drawn) [Compound A366], for which the IC50 came out at 644 nM on DGKζ and 366 nM at DGKα.
On the same counts, the results for `CC[C@H]1CN(C(C)c2ccccc2NC(C)=O)[C@H](CC)CN1c1cc(=O)n(C)c2cn(CC#N)nc12` (stereo partly drawn) [Compound A165] are 2840 nM and over 10000 nM.
On to `CC[C@H]1CN(C(C)c2ccc3ccccc3n2)[C@H](CC)CN1c1cc(=O)n(C)c2cn(CC#N)nc12` (stereo partly drawn) [Compound A57], for which the IC50 at DGKζ is 50 nM; against DGKα, 114 nM.
As for `CC[C@H]1CN(C(C)c2ccc(C(F)(F)F)c(OC)c2)[C@H](CC)CN1c1cc(=O)n(C)c2cn(CC#N)nc12` (stereo partly drawn) [Compound A78], the IC50 at DGKζ is 640 nM; on DGKα it was 2410 nM.
As for `C#CCn1cc2c(n1)c(N1C[C@@H](C)N(C(C)c3ccc4nccnc4c3)C[C@@H]1C)cc(=O)n2C` (stereo partly drawn) [Compound A21], the IC50 worked out at 310 nM on DGKζ and 5300 nM at DGKα.
On to `CC[C@@H]1CN(c2c(F)c(=O)[nH]c3cn(CC#N)nc23)[C@@H](C)CN1C(C)c1ccc2nccnc2c1` (single isomer, unassigned) [Compound A194a], for which the IC50 came out at 155 nM at DGKζ and 6350 nM against DGKα.
Regarding `CC(c1ccc2nccnc2c1)N1C[C@H](C)N(c2nc(=O)n(C)c3cn(CC#N)nc23)C[C@H]1C` (stereo partly drawn) [Compound A154, 2-(7-((2S,5R)-2,5-dimethyl-4-(1-(quinoxalin-6-yl)ethyl)piperazin-1-yl)-4-methyl-5-oxo-4,5-dihydro-2H-pyrazolo[4,3-d]pyrimidin-2-yl)acetonitrile], the IC50 at DGKζ was 104 nM; on DGKα it was 9210 nM.
For `CC[C@H]1CN(C(C)c2ccc(F)cc2OC)[C@H](CC)CN1c1cc(=O)n(C)c2cn(CC#N)nc12` (single isomer, unassigned) [Compound A71b], the IC50 at DGKζ is 130 nM; at DGKα it was 40000 nM.
Consider `CC[C@H]1CN(C(C)c2cnc3ccccc3n2)[C@H](CC)CN1c1cc(=O)n(C)c2cn(CC#N)nc12` (stereo partly drawn) [Compound A55], for which the IC50 at DGKζ is 9 nM; at DGKα, 22 nM.
On the same counts, the results for `CC(c1ccc2nccnc2c1)N1C[C@H](C)N(c2cc(=O)n(C)c3cn(C4CCC4)nc23)C[C@H]1C` (stereo partly drawn) [Compound A14] are 12000 nM and 52000 nM.
On the same counts, the results for `Cc1cnc2ccc(C(C)N3C[C@H](C)N(c4cc(=O)n(C)c5cn(CC#N)nc45)C[C@H]3C)cc2n1` (stereo partly drawn) [Compound A269 (RII), 2-(7-((2S,5R)-2,5-dimethyl-4-(1-(3-methylquinoxalin-6-yl)ethyl)piperazin-1-yl)-4-methyl-5-oxo-4,5-dihydro-2H-pyrazolo[4,3-b]pyridin-2-yl)acetonitrile] are 35 nM and over 10000 nM.
As to `CC[C@H]1CN(C(C)c2ccccn2)[C@H](CC)CN1c1cc(=O)n(C)c2cn(CC#N)nc12` (stereo partly drawn) [Compound A90], the IC50 at DGKζ stood at 1900 nM; on DGKα, 13 nM.
Regarding `CC[C@H]1CN(C(C)c2ccc(F)cc2C(C)OC)[C@H](CC)CN1c1cc(=O)n(C)c2cn(CC#N)nc12` (stereo partly drawn) [Compound A327, 2-(7-((2S,5R)-2,5-diethyl-4-(1-(4-fluoro-2-(1-methoxyethyl)phenyl)ethyl)piperazin-1-yl)-4-methyl-5-oxo-4,5-dihydro-2H-pyrazolo[4,3-b]pyridin-2-yl)acetonitrile], the figures for the IC50 at DGKζ and at DGKα were 19 nM and over 150000 nM, respectively.
Take `CC[C@H]1CN(C(C)c2cnc3c(n2)CCCC3)[C@H](CC)CN1c1cc(=O)n(C)c2cn(CC#N)nc12` (single isomer, unassigned) [Compound A357b]: the IC50 is 12 nM on DGKζ and 646 nM against DGKα.
As to `CC[C@H]1CN(C(C)c2ccc3nc(OC)cnc3c2)[C@H](CC)CN1c1cc(=O)n(C)c2cn(CC#N)nc12` (single isomer, unassigned) [Compound A281a], the IC50 on DGKζ came to 77 nM; against DGKα it was 6650 nM.

By IC50 is commonly meant the point on the concentration scale where inhibition reaches its midpoint.

The values above are taken from patent US20240270751A1, “Pyrazolopyridinone Compounds” (BeiGene Ltd., priority 2021, published 2024).
